The structures appear in SMILES notation.

A short description of the data set: gradient 5% acetonitrile 3 min, to 50% in 2 min, to 85% in 15 min, held 3 min, 100 µL/min. Conditions: column: Zorbax Extend-C18 2.1 x 50 mm; eluents: water / acetonitrile, 0.1% formic acid. The method, boiled down:
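Values are retention times taken from adduct peaks that software picked and an analyst inspected. The pure standards were run as mixtures of ~100 molecules on HPLC linked to a quadrupole time-of-flight mass spectrometer, in positive and negative ionization mode. A Zorbax Extend-C18 column (2.1 × 50 mm, 1.8 μm) was used at 100 μL/min with water and acetonitrile, each including 0.1% formic acid.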
As to `CCNc1nc(NC)nc(-n2cnc(SC)n2)n1`, the RP-LC retention time was determined as 674 s.
Regarding `Cc1csc(NC(=O)C2CCN(S(=O)(=O)c3cc(-c4noc(C)n4)ccc3Cl)CC2)n1`, the RP-LC retention time came to 899 s.
Consider `Cc1ccc(F)cc1NC(=O)Cn1nc(N2CCCCCC2)c2ccccc2c1=O`, for which the RP-LC retention time stood at 1140 s.
Consider `c1coc(-c2nc3ccccc3c3nnc(SCc4cn5ccccc5n4)n23)c1`, for which the RP-LC retention time is 867 s.
Under `CCn1c(=O)c(N2CCC(NC(=O)Nc3cc(C)ccc3C)CC2)nc2cccnc21` stands 993 s; under `CC(=O)N1CCc2cc(CNS(=O)(=O)c3ccccc3Cl)ccc21`, 763 s; under `CCC(=O)N1CCc2cc(N3CC(C(=O)Nc4cc(Cl)ccc4OC)CC3=O)ccc21` (stereo unspecified), 828 s.
Under `CCc1noc(NC(C)=O)c1-c1ccc(C)c(S(=O)(=O)NCc2cccs2)c1` stands 783 s; under `CCOc1cc(=O)n2c(c1C(=O)NCCCN1CCCc3ccccc31)CCCCC2`, 733 s.
As to `CCCN1C(=O)COc2ccc(-c3noc(CNC(=O)c4ccc(C)cc4)n3)cc21`, the RP-LC retention time was determined as 930 s.
As to `O=C(COc1ccc(F)cc1)NCC(=O)N1CCCc2ccccc21`, the RP-LC retention time amounted to 850 s.
Under `O=C(c1ccc(=O)n(CCN2CCOCC2)c1)N1CCN(c2ccccc2F)CC1` stands 613 s.
Under `COc1ccc(NS(=O)(=O)c2cc3c4c(c2)CCC(=O)N4CCC3)cc1OC` stands 730 s; under `COc1ccc(Cl)cc1NC(=O)c1cc(C)n2nccc2n1`, 942 s.
The value for `O=S(=O)(Nc1ccc(F)cc1)c1cccnc1Nc1cccc(Cl)c1` was 1130 s; that for `O=C(CN1CCN(Cc2ccc(F)cc2)C1=O)NCc1cccc(Cl)c1` was 846 s; that for `CN(C(=O)Cn1ccc2c(=O)n(C)c(=O)n(C)c21)c1cccc(Cl)c1` was 709 s.
As for `Cc1ccccc1CC(=O)NCc1ccc2c(c1)ncn2C(C)C`, the RP-LC retention time was 618 s.
The value for `CCCN(C)c1nccn2c(=O)n(CC(=O)Nc3cc(C)ccc3C)nc12` was 696 s; that for `COC(=O)Cn1c(C)cc(=O)n2nc(-c3ccccc3C)nc12` was 761 s; that for `Cc1cc(F)ccc1NS(=O)(=O)c1cc2c(s1)CCN(C(=O)C1CC1)C2` was 839 s.
In turn, `O=C(NCc1ccncc1)C1CC(=O)N(c2ccc3c(c2)CCN3C(=O)C2CC2)C1` (stereo unspecified) came in with an RP-LC retention time of 573 s.
Compound `Cc1ccc(F)cc1NC(=O)CN1CCC(c2nc(-c3cccs3)no2)CC1` gave an RP-LC retention time of 725 s.
Under `Cc1ccc(S(=O)(=O)N2CCC3(CC2)NCCN=C3NCc2ccccc2F)cc1C` stands 750 s; under `CC(C)(C)NC(=O)Nc1nnc(SCc2c(F)cccc2Cl)s1`, 946 s.
Under `O=C(Cn1ccc2ccc(N3CCOCC3)nc21)N1CCN(c2ccccn2)CC1` stands 616 s; under `O=C(Cc1ccsc1)N1CCC([C@@H]2CNC[C@H]2CO)CC1`, 568 s; under `CCCc1cc(C2CCCN2C(=O)NCc2ccc(F)cc2)no1` (stereo unspecified), 873 s.
In the case of `Cc1ccc(NC(=O)N2C[C@H](c3nc(-c4ccncc4)no3)[C@@H](C)C2)c(C)c1`, the RP-LC retention time was found to be 797 s.
`O=C(Nc1cc(F)c2nc(N3CCOCC3)ccc2c1)c1cccs1` displayed an RP-LC retention time of 787 s.
Turning to `Cn1c(C(=O)NCCc2ccccc2)cc2sc(Cl)cc21`, the RP-LC retention time came to 1050 s.
The value for `Cc1csc(-c2cc(S(=O)(=O)Nc3cccc(C)c3C)c(C)s2)n1` was 1090 s; that for `CC1(C(=O)NCc2ccc(F)cc2)CCCN(C(=O)Nc2ccc(F)cc2)C1` (stereo unspecified) was 887 s; that for `CCc1ccc(-c2cc(C(F)(F)F)on2)cc1S(=O)(=O)N1CCN(c2ccccn2)CC1` was 933 s.
Under `Cc1ccc(-c2coc(-c3ccc(NC(=O)CC(C)C)cc3)n2)c(C)c1` stands 1240 s; under `CCN1c2ccccc2C(=O)NC12CCN(C(=O)c1cc(OC)c(OC)c(OC)c1)CC2`, 714 s; under `CCS(=O)(=O)N1CC(=O)N(c2cccc(F)c2)C(C)(C(=O)NCc2ccccc2)C1` (stereo unspecified), 779 s.
The value for `CN(C)CCNC(=O)Cc1cccn1-c1ccc(F)cc1` was 598 s; that for `CC(C)n1cnc(S(=O)(=O)N2CCCC(C(=O)Nc3ccc(F)cc3F)C2)c1` (stereo unspecified) was 792 s; that for `Cc1ccccc1Nc1c(-c2ccc(O)cc2)nc2ccc(Cl)cn12` was 710 s.
`O=C(NC1CCS(=O)(=O)C1)C1CCN(S(=O)(=O)c2cccs2)CC1` (stereo unspecified) yielded an RP-LC retention time of 616 s.
The value for `Cc1cc(NC(=O)CSc2nncn2C)no1` was 554 s; that for `COc1cc(OC)c(Nc2cc(C)nc3nc(-c4ccc(C)cc4)nn23)cc1Cl` was 1060 s.
The value for `CC(C(=O)NCCCN1CCOCC1)C1CCN(C(=O)c2cc3cc(Cl)ccc3[nH]2)CC1` (stereo unspecified) was 648 s; that for `CC(=O)N1CCc2ccccc2C1C(=O)NCc1cc(F)cc(F)c1` (stereo unspecified) was 764 s; that for `CC1CC(=O)N(CC(=O)Nc2cccc(Cl)c2)c2ccccc2S1` (stereo unspecified) was 978 s.
Compound `O=C(NCc1ccccc1)c1cc(-c2ccc(F)cc2)ns1` displayed an RP-LC retention time of 1040 s.
Compound `CCC1Oc2ccc(S(=O)(=O)N3CCC(C(=O)N4CCOCC4)CC3)cc2NC1=O` (stereo unspecified) yielded an RP-LC retention time of 691 s.
As to `CC(C)Oc1ccc(NC(=O)C2CCN(S(C)(=O)=O)c3cc(Cl)ccc3O2)cc1` (stereo unspecified), the RP-LC retention time was 1020 s.
For `CCOc1cc(C(=O)N2CCCC2c2nc(-c3ccc(OC)cc3)no2)cc(OCC)c1OCC` (stereo unspecified), the RP-LC retention time came out at 1080 s.
The compound `O=C(Nc1ccc(-c2nc3ccccc3[nH]2)cc1)c1cccs1` displayed an RP-LC retention time of 579 s.
In turn, `Cc1ccc(CNC(=O)c2nnc(-c3oc4c(C)cccc4c3C)o2)o1` displayed an RP-LC retention time of 1140 s.
As for `O=S(=O)(c1ccc(-c2noc(-c3ccc(F)c(F)c3)n2)cc1)N1CCOCC1`, the RP-LC retention time was 1110 s.
For the compound `COCCNC(=O)CSc1cc(N2CCN(c3ccc(OC)cc3)CC2)ncn1`, the RP-LC retention time came out at 662 s.
With `Cc1ccc(CNC(=O)C2CCN(S(C)(=O)=O)c3ccccc3O2)cc1` (stereo unspecified), the RP-LC retention time amounted to 854 s.
In turn, `CCCCCNC(=O)c1ccc(Oc2nccnc2N2CCC(C)CC2)cc1` registered an RP-LC retention time of 1220 s.
`CCc1ccccc1NC(=O)Cn1ccc2sccc2c1=O` gave an RP-LC retention time of 742 s.
`O=C(NCc1ccc(F)cc1F)C1CC(=O)N(c2ccc3c(c2)CCN3C(=O)C2CC2)C1` (stereo unspecified) had an RP-LC retention time of 750 s.
`NS(=O)(=O)c1ccc(NC(=O)CSc2ccc3ccccc3n2)cc1` returned an RP-LC retention time of 736 s.
`CCOC(=O)CCNC(=O)N1CCOc2ccc(N(C)C)cc2C1` gave an RP-LC retention time of 583 s.
For `Cc1ccc2nc(C)cc(C(=O)NC(C)C)c2c1`, the RP-LC retention time was 595 s.
Under `COc1cc(NC(=O)CN2C(=O)COc3ccc(C(=O)N(C)C)cc32)cc(OC)c1` stands 689 s; under `Cc1cc(OCC(=O)NCc2ccc(Cl)cc2)nc(N2CCCC2)n1`, 645 s; under `O=C1CCCN1CCCn1c(SCc2c(F)cccc2F)nc2ccccc2c1=O`, 895 s.
In turn, `COc1ccc(C)cc1NC(=O)Cn1c(=O)cc(-c2nc(C3CC3)no2)c2ccccc21` returned an RP-LC retention time of 1050 s.
`COC(=O)c1ncn2c1C(=O)N(Cc1ccccc1Cl)C(C)(C(=O)NCc1ccccc1)C2` (stereo unspecified) showed an RP-LC retention time of 762 s.
`Cc1nn(-c2nc(-c3ccc(F)cc3)cs2)c(C)c1CC(=O)Nc1ccccc1Cl` displayed an RP-LC retention time of 1230 s.
Under `Cc1nc(-c2noc(-c3ccncc3)n2)cn1CC(=O)Nc1ccc(F)cc1` stands 833 s.
The value for `CN(C)c1ncncc1N1CCC(C(=O)NCc2ccc(Cl)cc2)CC1` was 643 s; that for `Cc1cccn2cc(-c3cccc(S(=O)(=O)N4CCCCCC4)c3)nc12` was 692 s.
On to `Cc1c(N2C(=O)c3cccc4cccc(c34)C2=O)c(=O)n(-c2ccccc2)n1C`, for which the RP-LC retention time was 644 s.
`O=C(NCC1CCOCC1)Nc1ccc(F)cc1` returned an RP-LC retention time of 670 s.
Under `O=c1n(CC2CC2)nc2n1CCN(S(=O)(=O)c1ccccc1C(F)(F)F)C2` stands 803 s; under `CCn1c(=O)c(C(=O)NC(C)C)nc2cc(C)c(C)cc21`, 803 s.
As for `Cc1cccc(NC(=O)C(=O)NCc2ccccn2)n1`, the RP-LC retention time amounted to 565 s.
Compound `Fc1ccc(-c2ccc(CNC3CN4CCC3CC4)o2)cc1` (stereo unspecified) came in with an RP-LC retention time of 558 s.
Take `Cc1cc(C)cc(NC(=O)N2CCN(c3cnn4c(C)nnc4c3)CC2)c1`: the RP-LC retention time was found to be 634 s.
Under `O=C(CCc1c(-c2ccc(Br)cc2)nc2ccccn12)NC1CCCCC1` stands 702 s; under `COC(=O)c1ccccc1NC(=O)c1cnc2sc(C)cn2c1=O`, 759 s; under `O=S(=O)(c1ccccc1F)N1CCC(Nc2cccnc2)C1` (stereo unspecified), 716 s.
Under `CC(C)(C)c1ccc(-c2nc(C3CC(=O)N(c4ccc(F)c(Cl)c4)C3)no2)cc1` (stereo unspecified) stands 1360 s.

The record behind these values is the METLIN SMRT retention time set (Domingo-Almenara et al. 2019).
